Reference: article PMC7822874, “Chemoprotective antimalarials identified through quantitative high-throughput screening of Plasmodium blood and liver stage parasites” (Scientific Reports, 2021)

Experiments:
[1] = system: Plasmodium falciparum Dd2 asexual blood stage parasites; assay: microbe, parasite or virus in culture; set-up: species or system Plasmodium falciparum Dd2 in human erythrocytes; single determination (one 11-point concentration-response curve); conditions: Plasmodium falciparum, DD2, Erythrocyte, 72 h; read-out: AC50
in vitro = conditions: human, n = 1

Compound | AC50 [1] [µM] | CC50 at 48 h (in vitro; HepG2 cells) [µM] | CC50 at 48 h (in vitro; hepg2) [µM]
Oc1c(C(Nc2ccccn2)c2ccccc2F)ccc2cccnc12 (centres unmarked) [NCGC00135751-01] | 9.44 | 27.3 | 
Cc1cc(O)c(-c2cc(C(=O)Nc3ccc(S(=O)(=O)N4CCOCC4)cc3)[nH]n2)cc1C [MLS000042703-01] | 1.68 | 27.3 | 
COc1ccccc1Nc1c2c(nc3ccc(NC(=O)/C=C/c4cccc(OC)c4OC)cc13)CCCC2 [NCGC00104013-01] | 5.96 | 30.6 | 
CN(C)CCNC(=O)c1nc2nc(-c3ccccc3)c(-c3cccc(F)c3)cc2n1C [NCGC00417874-01] | 19.3 | 31.4 | 
Fc1ccc(Nc2nc3nonc3nc2Nc2cccc(C(F)(F)F)c2)cc1 [NCGC00117664-01] | 1.68 | 4.32 | 
c1ccc(-c2nc(NCc3ccco3)c3ccccc3n2)nc1 [MLS000040057-01] | 5.96 | 27.3 | 
Cc1c(NN=C(C#N)C(=O)c2ccccc2)c(=O)n(-c2ccccc2)n1C [MLS000567622-01] | 6.68 | 12.2 | 
O=C(/C(=C/c1ccc(Cl)cc1)c1nc2ccccc2[nH]1)c1cccs1 [MLS000565128-01] | 2.11 | 24.3 | 
N=c1ccn(CC(=O)c2ccc(-c3ccccc3)cc2)cc1 [MLS000698051-01] | 0.944 | 24.3 | 
c1ccc(CCNc2nc(-c3ccccn3)cs2)cc1 [MLS000708031-01] | 7.5 | 21.7 | 
CC(C)OCc1cc(CN2CCN(c3cccc(C(F)(F)F)c3)CC2)c(O)c2ncccc12 [NCGC00114970-01] | 6.68 | 10.9 | 
CCCC(=O)NC(c1ccc(C(C)C)cc1)c1ccc2cccnc2c1O (centres unmarked) [MLS001211083-01] | 13.3 | 12.2 | 
Cc1cc(Cl)ccc1-c1ccc(CNC2CN(C(=O)OC(C)(C)C)C2)cc1 [NCGC00374248-01] |  | 34.3 | 
Cc1cc(NCc2ccccn2)n2nc(C)c(-c3ccc(Cl)cc3)c2n1 [MLS000559839-01] |  | 9.68 | 
c1csc(-c2cn3ccc4ccccc4c3n2)c1 [MLS000711806-01] |  | 15.3 | 
CC1=C[C@@H](CN2CCN(c3ccccn3)CC2)[C@H](C(C)C)C[C@H]1Cc1nnc(C)o1 [NCGC00392770-01] |  | 35.3 | 
Cc1sc(NC(=O)c2ccco2)c(C(c2cccnc2)N2CCC(C)CC2)c1C (centres unmarked) [MLS000536186-01] | 5.31 | 8.62 | 
FC(F)(F)c1cccc(Nc2nc3nonc3nc2Nc2ccc(Cl)cc2)c1 [NCGC00100377-01] | 0.75 | 3.85 | 
CCOC(=O)c1cnc(-n2nc(C)cc2C)nc1NNc1nc(-c2ccccc2)cc(-c2ccccc2)n1 [MLS000580862-01] | 2.11 | 19.3 | 
O=S(=O)(c1ccc(Cl)cc1)N1CCN(Cc2ccc(O)c3ncccc23)CC1 [MLS000774708-01] | 13.3 | 10.9 | 
COc1cnc(-c2ccccn2)nc1Sc1ccccc1 [MLS000692209-01] |  | 24.3 | 
CCNc1nc2c(c(=O)n(C)c(=O)n2C)n1Cc1ccc(F)cc1 [NCGC00142036-01] |  | 21.7 | 

Compound | AC50 [1] [µM] | CC50 at 48 h (in vitro; HepG2 cells) [µM] | CC50 at 48 h (in vitro; hepg2) [µM]
COc1ccc(/C=N/Nc2cc(C)nc(-n3nc(C)cc3C)n2)c(OC)c1 [MLS000589396-01] | 5.31 | 24.3 | 
N#Cc1c(Cl)nsc1NC(=O)c1ccccc1 [MLS000696348-01] |  | 13.7 | 
Cc1nn(-c2ccc(C(C)C)cc2)c(C)c1[C@@H]1C=C[C@@H](NCc2ccccc2)C1 [NCGC00392636-01] | 21.7 | 44.4 | 
O=C(Nc1cc(C(F)(F)F)cc(C(F)(F)F)c1)Nc1cnn(-c2ccc([N+](=O)[O-])cc2)c1C(F)(F)F [MLS000851511-01] | 6.68 | 10.9 | 
O=C(Cc1c[nH]c2ccccc12)N1CCc2c([nH]c(-c3ccc(F)cc3)nc2=O)C1 [NCGC00439989-01] |  | 0.00432 | 
CCCCC(=O)NC(c1ccc(C(C)C)cc1)c1ccc2cccnc2c1O (centres unmarked) [MLS001204647-01] | 7.5 | 15.3 | 
C[n+]1c2ccccc2nc2ccc(NCCO)cc21.[O-][Cl+3]([O-])([O-])[O-] | 1.19 |  | 13.7
COc1ccccc1N1CCN(C[C@@H]2C=C(C)[C@H](Cc3nnc(-c4cncn4C)o3)C[C@H]2C(C)C)CC1 [NCGC00392622-01] | 10.6 | 24.3 | 
CC(NNC(=O)C12CCC(C)(C(=O)O1)C2(C)C)=C1C=CC=CC1=O (centres unmarked) [MLS000778293-01] |  | 12.2 | 
COc1ccc(-c2nc(CC3CCN(C(=O)c4n[nH]c(=O)c5ccccc45)C3)no2)cc1 (centres unmarked) [NCGC00443252-01] |  | 19.3 | 
O=C1C=CC(Br)=CC1=CNNC(=O)c1ccncc1 [MLS000778139-01] | 9.44 | 12.2 | 
CCOC(=O)C1=C(c2ccccc2)N=C(N)NC1c1ccc(OCc2ccc(Cl)cc2)c(OC)c1 (centres unmarked) [MLS000771452-01] |  | 34.3 | 
O=C(Nc1ccc(Cl)cc1)c1nc2c(o1)CCN(Cc1cccc(O)c1)CC2 [NCGC00413336-01] |  | 17.7 | 
CCn1c(C)nc2cc(-c3nc4n(n3)Cc3ccccc3-4)ccc21 [MLS000054270-01] |  | 12.2 | 
O=C(CCCCCCC(=O)Nc1ccccc1)NO [NCGC00168085-01] |  | 19.3 | 
C=C1C(=O)OC2CC(C)C3C=CC(=O)C3(C)C(O)C12 (centres unmarked) [MLS002701927-01] |  |  | 15.3
CC(C)c1cccc(NC(=O)c2ccc(CN3C(=O)NC4(CCOCC4)C3=O)cc2)c1 [NCGC00454607-01] |  | 24.3 | 
CCCC(=O)NC(c1ccccc1)c1ccc2cccnc2c1O (centres unmarked) [MLS001204078-01] | 6.68 | 12.2 | 
CCOCc1cc(CN2CCN(c3ccccc3OC)CC2)c(O)c2ncccc12 [NCGC00114940-01] | 5.96 | 9.68 | 
COc1cnc(-c2ccccn2)nc1N(C)c1ccccc1 [MLS001166302-01] | 5.96 | 13.7 | 
O=C(c1ccc2[nH]ccc2c1)N1CCC2(CC1)NC(c1ccc(Br)cc1)=NO2 [NCGC00446987-01] |  | 24.3 | 
COc1ccc(CCNc2nc3c(c(=O)n(C)c(=O)n3C)n2Cc2ccc(F)cc2)cc1OC [NCGC00102121-01] |  | 13.7 | 

Compound | AC50 [1] [µM] | CC50 at 48 h (in vitro; HepG2 cells) [µM] | CC50 at 48 h (in vitro; hepg2) [µM]
COC1=CC=CC(=CNNc2cc(N3CCOCC3)ncn2)C1=O [MLS001202693-01] |  | 12.2 | 
COc1ccc(C2C=C(c3ccc(F)cc3)Nc3nc(-c4ccc(Cl)cc4)nn32)cc1 (centres unmarked) [NCGC00100513-01] | 0.75 | 27.3 | 
CC(=O)NC(c1ccccc1)c1cc(Cl)c2cccnc2c1O (centres unmarked) [MLS001210949-01] |  | 12.2 | 
CCCOc1ccc(C(=O)Nc2ccc(-c3cc4ccccc4oc3=O)c(C)c2)cc1 [NCGC00098245-01] |  | 24.3 | 
O=C(NCC1CC1)c1nc2c(o1)CCN(Cc1cccc(F)c1)CC2 [NCGC00413365-01] |  | 44.4 | 
Nc1nc(-c2ccccn2)nc(N)c1Cc1ccc(Cl)cc1Cl [MLS000691892-01] | 7.5 | 13.7 | 
O=C(Nc1nc(-c2ccccn2)cs1)c1ccc(F)c(S(=O)(=O)N2CCOCC2)c1 [MLS002162137-01] | 2.11 | 10.9 | 
Cc1ccc(Nc2nc3nonc3nc2Nc2cccc(C(F)(F)F)c2)cc1Cl [NCGC00117632-01] | 2.11 | 4.32 | 
CCOC(=O)c1ccc(Nc2nc3nonc3nc2Nc2cccc(C)c2C)cc1 [NCGC00117662-01] | 8.41 | 10.9 | 
Cc1[nH]n(-c2ccccc2)c(=O)c1/C=N/Nc1nncc(-c2ccccc2)n1 [MLS000579075-01] | 4.22 | 13.7 | 
Nc1nc(-c2ccccn2)nc(N)c1Cc1ccccc1F [MLS000691905-01] | 13.3 | 27.3 | 
CCc1ccc(NC(=O)N2CC(C(=O)N(C)C)C3(CCOCC3)C2)cc1 (centres unmarked) [NCGC00471776-01] |  | 0.00769 | 
COc1ccccc1CNC[C@@H]1C=C(C)[C@H](Cc2nc3cccc(C)c3[nH]2)C[C@H]1C(C)C [NCGC00392078-01] | 9.68 | 44.4 | 
Oc1ccccc1C(Nc1nccs1)c1ccc2cccnc2c1O (centres unmarked) [MLS000759877-01] |  | 19.3 | 
O=C1C=CC(Cl)=CC1=CNNC(=O)c1ccncc1 [MLS000766661-01] |  | 12.2 | 
COc1cc(C(=O)N/N=C(/c2ccccc2)c2ccccn2)cc(OC)c1OC [MLS000390992-01] |  | 10.9 | 
Cc1nn2c(NCc3ccccn3)cc(C(C)C)nc2c1-c1ccccc1 [MLS000762881-01] |  | 12.2 | 
CCCCC(=O)NC(c1ccc(Cl)cc1Cl)c1ccc2cccnc2c1O (centres unmarked) [MLS001212967-01] |  | 21.7 | 
O=C(Cc1ccccc1F)N1CC(Oc2ccc(-c3noc(-c4cccnc4)n3)cc2)C1 [NCGC00458031-01] |  | 19.3 | 
CCCCC(=O)NC(c1cccs1)c1cc(Cl)c2cccnc2c1O (centres unmarked) [MLS000714525-01] |  | 13.7 | 
